Like-named read-outs stand apart in the source and are kept apart here.
Assays:
HIV-1 = experiment: Inhibition of HIV-1 replication in peripheral blood mononuclear cells, viral RNA by real-time PCR; details: Human immunodeficiency virus 1, PBMC
Method: Equal amounts of wild-type and mutant viruses were used to infect 5×10^4 peripheral blood mononuclear cells (PBMC) in 1.5 mL medium containing DMSO or various concentrations of a test compound. A half-milliliter of the culture medium was collected from each culture at days 3, 5, and 7. Viral RNA was extracted from the collected culture supernatants and the viral titers (copies/mL) were determined by real-time PCR. The percentage of inhibition was calculated as [100−(VD/VC)]×100%, where VD and VC refer to the virus titers in the presence and absence of the test compound, respectively.

Enterovirus 71 (4643) = experiment: In vitro EV 71 neutralization assay, cytopathic effect on RD cells; format: cell-based; details: Enterovirus A, RD
Method: (§1) This assay measured the ability of a test compound to inhibit the cytopathic effect induced by a picornavirus (EV71, Coxsackie Virus B3, or human rhinovirus 2) on RD cells. The method used for this assay is described in Chang et al., J Med Chem, 2005, 48(10), 3522-3535. More specifically, 96-well tissue culture plates were seeded with 200 μL of RD cells at a concentration of 3×10^5 cells/mL in DMEM with 10% FBS. The plates were incubated for 24-30 h at 37° C. and were used at about 90% confluency. Virus (100 TCID50) mixed with different concentrations of a test compound was added to the cells and incubated at 37° C. for 1 h. After adsorption, the infected cell plates were overlaid with 50 μL of DMEM plus 5% FBS and 2% DMSO. The plate was wrapped in Parafilm and incubated at 37° C. for 64 h. At the end of incubation, the plates were fixed by the addition of 100 μL of 0.5% glutaraldehyde for 1 h at room temperature. After the removal of glutaraldehyde, the plates were stained with 0.1% crystal violet for 15 min at room temperature. The plates were washed and dried, and the density of the well was measured at 570 nm. The concentration required for a test compound to reduce the virus-induced cytopathic effect (CPE) by 50% relative to the virus control is expressed as IC50.

Influenza B/TW/70325/05 = experiment: Anti-influenza CPE neutralization test on MDCK cells; format: cell-based; details: Influenza B virus, Influenza B/TW/70325/05, CPE
Method: (§2) Anti-influenza activities of the coumarin compounds were evaluated by measuring the ability of a test compound to inhibit the cytopathic effect induced by an influenza virus on MDCK cells. The 96-well tissue culture plates were seeded with 200 μL of MDCK cells at a concentration of 1.1×10^5 cells/mL in DMEM with 10% fetal bovine serum (FBS). The plates were incubated for 24-30 h at 37° C. and were used at about 90% confluency. Influenza A/WSN/33 (H1N1) virus (100 TCID50) was added to the cells and incubated at 35° C. for 1 h. After adsorption, the infected cell plates were overlaid with 50 μL of DMEM plus 2% FBS and a test compound with different concentrations. The plate was incubated at 35° C. for 72 h. At the end of incubation, the plates were fixed by the addition of 100 μL of 4% formaldehyde for 1 h at room temperature. After the removal of formaldehyde, the plates were stained with 0.1% crystal violet for 15 min at room temperature. The plates were washed and dried, and the density of the well was measured at 570 nm. The concentration required for a test compound to reduce the virus-induced cytopathic effect (CPE) by 50% relative to the virus control was expressed as IC50.
(§3) Compounds 1 and 95 were also tested on various influenza virus strains. Amantadine or Relenza was also tested for comparison. IC50 is defined as the concentration required for a test compound to reduce the virus-induced cytopathic effect (CPE) by 50% relative to the virus control.

Influenza B/TW/99/07 = experiment: as above; format: cell-based; details: Influenza B virus, Influenza B/TW/99/07, CPE
Method: as §2, §3

[1] = tested on: Influenza A/TW/83/05 (H3N2); experiment: as above; format: cell-based; details: Influenza A virus
Method: as §2, §3

[2] = tested on: Influenza A/Udorn/72 (H3N2); experiment: as above; format: cell-based; details: Influenza A virus
Method: as §2, §3

Influenza B/TW/710/05 = experiment: as above; format: cell-based; details: Influenza B virus, Influenza B/TW/710/05, CPE
Method: as §2, §3

[3] = tested on: Influenza A/TW/785/05 (H1N1); experiment: as above; format: cell-based; details: Influenza A virus
Method: as §2, §3

Human rhinovirus 2 = experiment: In vitro human rhinovirus 2 neutralization assay, cytopathic effect on RD cells; format: cell-based; details: Rhinovirus A, RD
Method: as §1

Coxsackie B virus 3 = experiment: In vitro Coxsackie Virus B3 neutralization assay, cytopathic effect on RD cells; format: cell-based; details: Coxsackie B virus 3, RD cells, CPE
Method: as §1

[4] = tested on: Influenza A/WSN/33 (H1N1) virus; experiment: In vitro anti-influenza virus assay (neutralization test), cytopathic effect on MDCK cells; format: cell-based
Method: as §2, §3

[5] = tested on: herpes simplex virus type 1; experiment: In vitro assessment of anti-HSV activity, plaque reduction assay in Vero cells (Example 8); format: cell-based; details: for SI, selectivity index = CC50/EC50: CC50/EC50, HSV-1; for EC50: Human alphaherpesvirus 1, herpes simplex virus type 1, Vero cells, plaque reduction, 72 h, read-out: EC50 (μM), 50% effective concentration
Method: Anti-HSV activities of compounds described herein were evaluated by performing a plaque reduction assay using monolayer cultures of Vero cells in 24-well culture plates. A cell monolayer was infected with herpes simplex virus type 1 (50 pfu/well) and incubated at 37° C. with 5% CO2 for 1 h. The infected cell monolayer was then washed three times with PBS and overlaid with a solution (maintenance medium containing 1% methylcellulose and various concentrations of a test compound). After 72 h of incubation at 37° C., the cell monolayer was fixed with 10% formalin and stained with 1% crystal violet. […] The minimal concentration of a compound required to reduce 50% of plaque numbers (EC50) was calculated by regression analysis of the dose-response curves generated from the plaque assay.

[6] = Cytotoxicity (CC50) of the compounds tested in the anti-HSV assay; format: cell-based; details: African green monkey, Vero cells; Table 5; read-out: CC50 (μM), 50% cytotoxicity concentration
[7] = tested on: Influenza A/TW/3446/04 (H3N2); experiment: Anti-influenza CPE neutralization test on MDCK cells; format: cell-based; details: Influenza A virus
Method: as §2, §3

[8] = tested on: Influenza A/TW/141/04 (H1N1); experiment: as above; format: cell-based; details: Influenza A virus
Method: as §2, §3

[9] = 72 h, read-out: Inhibition (%) Day 3
[10] = 120 h, read-out: Inhibition (%) Day 5
[11] = 168 h, read-out: Inhibition (%) Day 7
[12] = MDCK, CPE, Table 2, read-out: IC50
[13] = MDCK cells, 72 h, lower bound (10 nM), upper in μM, read-out: IC50 (concentration reducing virus-induced cytopathic effect by 50%)
[14] = MDCK cells, 72 h, ranges given, read-out: IC50 (concentration reducing virus-induced cytopathic effect by 50%)

Cc1cn([C@H]2C[C@H](N=[N+]=[N-])[C@@H](CO)O2)c(=O)[nH]c1=O [AZT, zidovudine, reference compound]
inhibition at 0.05 µM (HIV-1; [9]): 6% | inhibition at 0.05 µM (HIV-1; [10]): 71% | inhibition at 0.05 µM (HIV-1; [11]): 88%

NC12CC3CC(CC(C3)C1)C2 [Amantadine]
IC50 (Enterovirus 71 (4643)): > 25 µM | IC50 (Influenza B/TW/70325/05): > 25000 nM | IC50 (Influenza B/TW/99/07): > 25000 nM | IC50 [1]: > 25 µM | IC50 [2]: 980 ± 147 nM | IC50 (Influenza B/TW/710/05): > 25000 nM | IC50 [3]: 382 ± 238 nM | IC50 (Human rhinovirus 2): > 25 µM | IC50 (Coxsackie B virus 3): > 25 µM | IC50 [4, 12]: > 25000 nM

Cc1cc(=O)oc2c1ccc1oc(C(=O)c3cccc(O)c3)c(-c3ccccc3)c12 [Compound 33]
inhibition at 0.1 µM (HIV-1; [9]): 5% | inhibition at 0.1 µM (HIV-1; [10]): 98% | inhibition at 0.1 µM (HIV-1; [11]): 99.5% | SI, selectivity index = CC50/EC50 [5]: 235.972 | EC50 [5]: 0.396 µM | CC50 [6]: 93.4 µM | IC50 [4, 13]: 10 to 999 nM

Cc1cc(=O)oc2c1ccc1oc(C(=O)c3cccs3)c(-c3ccccc3)c12 [Compound 95]
inhibition at 0.1 µM (HIV-1; [9]): 42% | inhibition at 0.1 µM (HIV-1; [10]): 89% | inhibition at 0.1 µM (HIV-1; [11]): 99% | SI, selectivity index = CC50/EC50 [5]: >1666.666 | EC50 [5]: 0.06 µM | IC50 (Influenza B/TW/70325/05): 90 ± 10 nM | IC50 (Influenza B/TW/99/07): 40 ± 10 nM | IC50 [7]: 150 ± 10 nM | IC50 (Influenza B/TW/710/05): 90 ± 10 nM | IC50 [8]: 90 ± 10 nM | CC50 [6]: > 100 µM | IC50 [4, 13]: 10 to 999 nM | IC50 [4, 12]: 70 ± 10 nM

Cc1cc(=O)oc2c1ccc1oc(C(=O)c3ccccc3)c(-c3ccc(F)cc3)c12 [Compound 134]
inhibition at 0.1 µM (HIV-1; [9]): 61% | inhibition at 0.1 µM (HIV-1; [10]): 91% | inhibition at 0.1 µM (HIV-1; [11]): 96% | SI, selectivity index = CC50/EC50 [5]: >3095.975 | EC50 [5]: 0.0323 µM | CC50 [6]: > 100 µM | IC50 [4, 13]: 10 to 999 nM

Cc1cc(=O)oc2c1ccc1oc(C(=O)c3ccccc3)c(-c3ccc(Br)cc3)c12 [Compound 140]
inhibition at 0.1 µM (HIV-1; [9]): 19% | inhibition at 0.1 µM (HIV-1; [10]): 65% | inhibition at 0.1 µM (HIV-1; [11]): 93% | SI, selectivity index = CC50/EC50 [5]: >291.545 | EC50 [5]: 0.343 µM | CC50 [6]: > 100 µM | IC50 [4, 13]: 10 to 999 nM

Cc1cccc(-c2c(C(=O)c3ccccc3)oc3ccc4c(C)cc(=O)oc4c23)c1 [Compound 141]
inhibition at 0.1 µM (HIV-1; [9]): 19% | inhibition at 0.1 µM (HIV-1; [10]): 71% | inhibition at 0.1 µM (HIV-1; [11]): 97% | SI, selectivity index = CC50/EC50 [5]: >25641.03 | EC50 [5]: 0.0039 µM | CC50 [6]: > 100 µM | IC50 [4, 13]: 10 to 999 nM

CC(=O)OCCCCCCOc1cccc(C(=O)c2oc3ccc4c(C)cc(=O)oc4c3c2-c2ccccc2)c1 [Compound 237]
IC50 [4, 13]: 10 to 999 nM

Cc1cc(=O)oc2c1ccc1oc(C(=O)c3ccccc3)c(-c3ccc(O)cc3)c12 [Compound 239]
IC50 [4, 14]: 1000 to 5900 nM

Cc1cc(=O)oc2c1ccc1oc(C(=O)c3cccc(OCCN4CCc5ccccc5C4)c3)c(-c3ccccc3)c12 [Compound 240]
IC50 [4, 14]: 1000 to 5900 nM

Cc1cc(=O)oc2c1ccc1oc(C(=O)c3cccc(OCCN4Cc5ccccc5C4)c3)c(-c3ccccc3)c12 [Compound 241]
IC50 [4, 14]: 1000 to 5900 nM

CCCCCCCCOc1cccc(C(=O)c2oc3ccc4c(C)cc(=O)oc4c3c2-c2ccccc2)c1 [Compound 243]
IC50 [4, 14]: 6000 to 25000 nM

COc1cccc(C(=O)c2oc3ccc4c(C)cc(=O)oc4c3c2-c2ccccc2F)c1 [Compound 245]
IC50 [4, 13]: 10 to 999 nM

COc1cccc(C(=O)c2oc3ccc4c(C)cc(=O)oc4c3c2-c2cccc(F)c2)c1 [Compound 246]
IC50 [4, 13]: 10 to 999 nM

COc1cccc(C(=O)c2oc3ccc4c(C)cc(=O)oc4c3c2-c2cccc(C)c2)c1 [Compound 247]
IC50 [4, 13]: 10 to 999 nM

COc1ccc(-c2c(C(=O)c3ccccc3)oc3ccc4c(C)cc(=O)oc4c23)cc1 [Compound 248]
IC50 [4, 14]: 6000 to 25000 nM

Cc1cc(=O)oc2c1ccc1oc(C(=O)c3cccc(OP(=O)(O)O)c3)c(-c3ccccc3)c12 [Compound 249]
IC50 [4, 14]: 1000 to 5900 nM

COc1cccc(C(=O)c2oc3ccc4c(C)cc(=O)oc4c3c2-c2ccc(Br)cc2)c1 [Compound 252]
IC50 [4, 13]: 10 to 999 nM

Cc1cc(=O)oc2c1ccc1oc(C(=O)c3cccs3)c(-c3ccc(Br)cc3)c12 [Compound 254]
IC50 [4, 14]: 1000 to 5900 nM

COc1cccc(C(=O)c2oc3ccc4c(C)cc(=O)oc4c3c2-c2cccc(Br)c2)c1 [Compound 256]
IC50 [4, 13]: 10 to 999 nM

Cc1cc(=O)oc2c1ccc1oc(C(=O)c3cccs3)c(-c3cccs3)c12 [Compound 257]
IC50 [4, 13]: 10 to 999 nM

Cc1cc(=O)oc2c1ccc1oc(C(=O)c3cccs3)c(-c3cccc(Br)c3)c12 [Compound 259]
IC50 [4, 13]: 10 to 999 nM

CCOc1cccc(C(=O)c2oc3ccc4c(C)cc(=O)oc4c3c2-c2cccc(Br)c2)c1 [Compound 260]
IC50 [4, 13]: 10 to 999 nM

CCCCOc1cccc(C(=O)c2oc3ccc4c(C)cc(=O)oc4c3c2-c2cccc(Br)c2)c1 [Compound 262]
IC50 [4, 13]: 10 to 999 nM

CCCCCOc1cccc(C(=O)c2oc3ccc4c(C)cc(=O)oc4c3c2-c2cccc(Br)c2)c1 [Compound 263]
IC50 [4, 14]: 1000 to 5900 nM

From patent US20090312406A1, “COUMARIN COMPOUNDS AND THEIR USE FOR TREATING VIRAL INFECTION” (priority 2008, published 2009)
